# Data: ChEMBL document CHEMBL1201862, “PubChem BioAssay data set” (2004)
#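 Where inhibition never reached the appropriate level, the endpoint shown equals the highest concentration tested. Otherwise, values were interpolated linearly from a five-concentration, 48-hour dose response in 96-well plates. GI50 = concentration required for 50% inhibition of growth.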 Active and inactive are the calls of the source. No stated cut-off is given here; in the data, active = GI50 up to about 1.1 µM and inactive = higher.
# How the values were obtained:
# Assay in all cases: NCI anticancer screen, dose series, 48 h
# [1] = test system: BT-549
# [2] = test system: MDA-MB-231
# [3] = test system: OVCAR-4
# [4] = test system: ACHN
# [5] = test system: HOP-92
# [6] = test system: OVCAR-3
# [7] = test system: RXF 393
# [8] = test system: M14
# [9] = test system: NCI-H522
# [10] = test system: NCI-H226
# [11] = test system: PC-3
# [12] = test system: SNB-19
# [13] = test system: CAKI-1
# [14] = test system: NCI-H460
# [15] = test system: KM12
# [16] = test system: EKVX
# [17] = test system: HCC 2998
# [18] = test system: 786-0
# [19] = test system: LOX IMVI
# [20] = test system: MDA-MB-435
# [21] = test system: A498
# [22] = test system: MDA-N
# [23] = test system: UACC-257
# [24] = test system: SR
# [25] = test system: SF-268
# [26] = test system: MOLT-4
# [27] = test system: COLO 205
# [28] = test system: SK-MEL-5
# [29] = test system: NCI-H23
# [30] = test system: UO-31
# [31] = test system: IGROV-1
# [32] = test system: SK-MEL-2
# [33] = test system: NCI/ADR-RES
# [34] = test system: OVCAR-5
# [35] = test system: SF-539
# [36] = test system: SW-620
# [37] = test system: UACC-62
# [38] = test system: RPMI-8226
# [39] = test system: HOP-62
# [40] = test system: TK-10
# [41] = test system: SN12C
# [42] = test system: SK-MEL-28
# [43] = test system: Malme-3M
# [44] = test system: HCT-116
# [45] = test system: T47D
# [46] = test system: DU-145
# [47] = test system: OVCAR-8
# [48] = test system: HCT-15
# [49] = test system: MCF7
# [50] = test system: A549
# [51] = test system: SNB-75
# [52] = test system: Hs-578T
# [53] = test system: HT-29
# [54] = test system: K562
# [55] = test system: SF-295
# [56] = test system: U-251
# [57] = test system: SK-OV-3
structure (smiles),measurement,setting,value
Nc1ncnc2c1ncn2CCCCC(=O)O,GI50,[1],> 100 µM (inactive)
same,GI50,[2],> 100 µM (inactive)
same,GI50,[3],> 100 µM (inactive)
same,GI50,[4],> 100 µM (inactive)
same,GI50,[5],> 100 µM (inactive)
same,GI50,[6],> 100 µM (inactive)
same,GI50,[7],> 100 µM (inactive)
same,GI50,[8],> 100 µM (inactive)
same,GI50,[9],> 100 µM (inactive)
same,GI50,[10],> 100 µM (inactive)
same,GI50,[11],> 100 µM (inactive)
same,GI50,[12],> 100 µM (inactive)
same,GI50,[13],> 100 µM (inactive)
same,GI50,[14],> 100 µM (inactive)
same,GI50,[15],> 100 µM (inactive)
same,GI50,[16],> 100 µM (inactive)
same,GI50,[17],> 100 µM (inactive)
same,GI50,[18],> 100 µM (inactive)
same,GI50,[19],> 100 µM (inactive)
same,GI50,[20],> 100 µM (inactive)
same,GI50,[21],> 100 µM (inactive)
same,GI50,[22],> 100 µM (inactive)
same,GI50,[23],> 100 µM (inactive)
same,GI50,[24],> 100 µM (inactive)
same,GI50,[25],> 100 µM (inactive)
same,GI50,[26],> 100 µM (inactive)
same,GI50,[27],> 100 µM (inactive)
same,GI50,[28],> 100 µM (inactive)
same,GI50,[29],> 100 µM (inactive)
same,GI50,[30],> 100 µM (inactive)
same,GI50,[31],> 100 µM (inactive)
same,GI50,[32],> 100 µM (inactive)
same,GI50,[33],> 100 µM (inactive)
same,GI50,[34],> 100 µM (inactive)
same,GI50,[35],> 100 µM (inactive)
same,GI50,[36],> 100 µM (inactive)
same,GI50,[37],> 100 µM (inactive)
same,GI50,[38],> 100 µM (inactive)
same,GI50,[39],> 100 µM (inactive)
same,GI50,[40],> 100 µM (inactive)
same,GI50,[41],> 100 µM (inactive)
same,GI50,[42],> 100 µM (inactive)
same,GI50,[43],> 100 µM (inactive)
same,GI50,[44],> 100 µM (inactive)
same,GI50,[45],> 100 µM (inactive)
same,GI50,[46],> 100 µM (inactive)
same,GI50,[47],> 100 µM (inactive)
same,GI50,[48],> 100 µM
same,GI50,[49],> 100 µM (inactive)
same,GI50,[50],> 100 µM (inactive)
same,GI50,[51],> 100 µM (inactive)
same,GI50,[52],> 100 µM (inactive)
same,GI50,[53],> 100 µM (inactive)
same,GI50,[54],> 100 µM (inactive)
same,GI50,[55],> 100 µM (inactive)
same,GI50,[56],> 100 µM (inactive)
same,GI50,[57],> 100 µM (inactive)
